Laboratory results taken from paper doi:10.1101/2021.07.02.450968v1 (biorxiv, 2021).

Experiments:
FABP1 (liver, L-FABP) [1] = molecular target: T1, FABP1 (liver, L-FABP) (Homo sapiens, UniProt P07148); assay: fluorescence polarisation competition vs BODIPY C4,C9; assay type: binding
T1 sequence (P07148 1-127): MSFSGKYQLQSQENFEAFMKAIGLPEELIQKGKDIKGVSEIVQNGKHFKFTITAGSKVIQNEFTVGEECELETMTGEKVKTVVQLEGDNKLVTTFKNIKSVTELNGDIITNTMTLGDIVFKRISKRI

GR (α sub-type) = molecular target: T2, GR (α sub-type) (Homo sapiens, UniProt P04150); assay: GRE-SEAP reporter gene assay, COS-7; assay type: cell-based; conditions: 24 h agonist treatment; nominal EC80 concentration from reporter curves
T2 sequence (P04150 1-777): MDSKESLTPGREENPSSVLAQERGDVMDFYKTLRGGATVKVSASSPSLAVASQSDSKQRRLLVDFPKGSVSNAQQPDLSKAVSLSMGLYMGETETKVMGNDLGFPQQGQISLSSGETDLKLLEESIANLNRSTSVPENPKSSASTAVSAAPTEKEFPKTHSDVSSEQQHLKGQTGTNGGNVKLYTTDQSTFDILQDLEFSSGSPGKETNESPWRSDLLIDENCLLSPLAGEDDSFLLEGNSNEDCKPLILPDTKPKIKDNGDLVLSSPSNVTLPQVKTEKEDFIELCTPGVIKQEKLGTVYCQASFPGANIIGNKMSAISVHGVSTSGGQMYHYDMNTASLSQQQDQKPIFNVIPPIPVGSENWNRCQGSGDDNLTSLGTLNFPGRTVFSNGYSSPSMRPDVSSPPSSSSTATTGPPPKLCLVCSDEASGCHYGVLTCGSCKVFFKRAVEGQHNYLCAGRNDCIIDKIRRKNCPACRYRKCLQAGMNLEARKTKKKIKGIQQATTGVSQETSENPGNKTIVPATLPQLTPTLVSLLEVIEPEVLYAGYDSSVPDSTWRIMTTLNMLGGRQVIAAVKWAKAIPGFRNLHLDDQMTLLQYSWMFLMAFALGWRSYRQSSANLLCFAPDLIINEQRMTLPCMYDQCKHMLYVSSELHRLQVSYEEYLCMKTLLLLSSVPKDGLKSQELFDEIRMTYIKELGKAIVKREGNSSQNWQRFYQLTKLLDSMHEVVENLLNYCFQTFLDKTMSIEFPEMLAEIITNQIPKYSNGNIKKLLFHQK

FABP3 (heart, H-FABP) [2] = molecular target: T3, FABP3 (heart, H-FABP) (Homo sapiens, UniProt P05413); assay: fluorescence polarisation competition vs BODIPY C4,C9; assay type: binding
T3 sequence (P05413 whole entry): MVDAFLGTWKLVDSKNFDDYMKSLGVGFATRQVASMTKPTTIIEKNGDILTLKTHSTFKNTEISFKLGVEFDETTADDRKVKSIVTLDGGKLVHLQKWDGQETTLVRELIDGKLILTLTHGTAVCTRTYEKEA

[3] = molecular target: T4, FABP2 (intestine, I-FABP) (Homo sapiens, UniProt P12104); assay: as above; assay type: binding
T4 sequence (P12104 2-132): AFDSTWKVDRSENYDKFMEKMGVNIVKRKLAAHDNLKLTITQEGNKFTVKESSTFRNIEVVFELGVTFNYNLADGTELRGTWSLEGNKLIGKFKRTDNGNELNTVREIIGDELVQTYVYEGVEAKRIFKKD

[4] = molecular target: T5, FABP4 (adipocyte, A-FABP) (Homo sapiens, UniProt P15090); assay: as above; assay type: binding
T5 sequence (P15090 whole entry): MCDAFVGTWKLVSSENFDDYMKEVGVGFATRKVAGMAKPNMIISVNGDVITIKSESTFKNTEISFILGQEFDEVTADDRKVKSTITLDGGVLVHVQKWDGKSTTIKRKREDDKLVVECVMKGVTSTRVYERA

[5] = molecular target: T6, FABP5 (brain, B-FABP or epidermal, E-FABP) (Homo sapiens, UniProt Q01469); assay: as above; assay type: binding
T6 sequence (Q01469 2-135): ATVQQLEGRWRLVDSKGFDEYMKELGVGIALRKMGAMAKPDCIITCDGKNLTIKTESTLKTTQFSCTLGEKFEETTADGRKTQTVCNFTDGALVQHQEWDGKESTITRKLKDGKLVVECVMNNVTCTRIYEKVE

[6] = molecular target: T6, FABP5 (brain, B-FABP or epidermal, E-FABP); assay: fluorescence polarisation saturation binding
[7] = molecular target: T5, FABP4 (adipocyte, A-FABP); assay: fluorescence polarisation saturation binding
FABP3 (heart, H-FABP) [8] = molecular target: T3, FABP3 (heart, H-FABP); assay: fluorescence polarisation saturation binding
[9] = molecular target: T4, FABP2 (intestine, I-FABP); assay: fluorescence polarisation saturation binding
FABP1 (liver, L-FABP) [10] = molecular target: T1, FABP1 (liver, L-FABP); assay: fluorescence polarisation saturation binding

Row | Compound | Ki (FABP1 (liver, L-FABP) [1]) [µM] | EC80 (GR (α sub-type)) | Ki (FABP3 (heart, H-FABP) [2]) [µM] | Ki [3] [µM] | Ki [4] [µM] | Ki [5] [µM] | Kd [6] [µM] | Kd [7] [µM] | Kd (FABP3 (heart, H-FABP) [8]) [µM] | Kd [9] [µM] | Kd (FABP1 (liver, L-FABP) [10]) [µM]
1 | C[C@]12C=CC(=O)C=C1CC[C@@H]1[C@@H]2[C@@H](O)C[C@@]2(C)[C@H]1CC[C@]2(O)C(=O)CO [Prednisolone] | 47.9 | ~ 100 μM | 70.8 | 11 | 1150 |  |  |  |  |  | 
2 | C[C@H]1C[C@H]2[C@@H]3CCC4=CC(=O)C=C[C@]4(C)[C@@]3(F)[C@@H](O)C[C@]2(C)[C@@]1(O)C(=O)CO [β-methasone] | 91.2 | ~ 10 μM |  | 72.4 |  |  |  |  |  |  | 
3 | C[C@]12CCC(=O)C=C1CC[C@@H]1[C@@H]2[C@@H](O)C[C@@]2(C)[C@H]1CC[C@]2(O)C(=O)CO [Hydrocortisone] | 38.9 | ~ 1 mM | 7.76 |  | 120 | 21.9 |  |  |  |  | 
4 | C[C@]12CCC(=O)C=C1CC[C@@H]1[C@@H]2C(=O)C[C@@]2(C)[C@H]1CC[C@]2(O)C(=O)CO [Cortisone] | 302 |  | 107 | 16.6 | 977 | 129 |  |  |  |  | 
5 | C[C@@H]1C[C@H]2[C@@H]3CCC4=CC(=O)C=C[C@]4(C)[C@@]3(F)[C@@H](O)C[C@]2(C)[C@@]1(O)C(=O)CO [Dexamethasone] | 27.5 | ~ 10 μM | 5.62 |  | 74.1 |  |  |  |  |  | 
6 | C[C@]12C=CC(=O)C=C1CC[C@@H]1[C@@H]2C(=O)C[C@@]2(C)[C@H]1CC[C@]2(O)C(=O)CO [Prednisone] | 288 |  | 7.59 |  | 35.5 | 9.33 |  |  |  |  | 
7 | CCCCc1ccc2n1[B-](F)(F)[N+]1=C(CCCCCCCCC(=O)O)C=CC1=C2 [BODIPY 500/510 C4, C9] |  |  |  |  |  |  | 0.16 | 0.42 | 0.02 | 4.1 | 0.09
8 | CCCC1O[C@@H]2C[C@H]3[C@@H]4CCC5=CC(=O)C=C[C@]5(C)[C@H]4[C@@H](O)C[C@]3(C)[C@]2(C(=O)CO)O1 (stereo partly drawn) [Budesonide] | 85.1 | ~ 10 μM | 0.0575 |  |  | 19.1 |  |  |  |  | 
9 | C[C@H]1C[C@@H]2[C@H]([C@@H](O)C[C@@]3(C)[C@H]2CC[C@]3(O)C(=O)CO)[C@@]2(C)C=CC(=O)C=C12 [Methylprednisolone] | 79.4 |  | 117 | 3.39 | 2000 |  |  |  |  |  | 
